The values that follow come from US20250084095A1, “Aminopyrimidine Derivatives as Cyclin-Dependent Kinase Inhibitors” (Accutar Biotechnology Inc., priority 2023, published 2025).

Where two headings read alike, the source gives them in different places. Bounds are passed on as bounds.

In one test the target is CDK1-CYCLIN B (Homo sapiens (Human), UniProt P06493). Kind of test: CDK protein kinase inhibition by the ADP-Glo Assay, CDK1-CYCLIN B. Type of test: biochemical. The settings on record: 1000 μM ATP. As to the method:
(§1) This ADP-Glo assay measures ADP formed from a kinase reaction and indirectly quantifies the phosphorylation of peptide substrates by the CDK/cyclin protein complexes. The typical assays were carried out in Nanosyn by combining kinase/cyclin complexes, substrates, compounds, and cofactors (ATP and Mg2+) in a well of a 384-well microtiter plate (Coming 3824) and incubating at 22° C. (Table 4). At the end of the incubation, the reaction is quenched, and conversion is detected by luminescence using the Promega ADP-Glo™ Kinase Assay kit (catalog #V9102). Briefly, 5 μL of 1× enzyme and substrate buffer (or control), 50 nL of 100× compound, and 0.5 μL of 10 mM ATP were sequentially added to a well of a 384-well plate.
(§2) The Final assay buffer mixture contains: 100 mM HEPES, pH 7.5, 0.1% BSA, 0.01% Triton X-100, 1 mM DTT, 5 mM MgCl2, 10 μM Sodium Orthovanadate, 10 μM Beta-Glycerophosphate, 1000 μM Ultra Pure ATP (provided in the Promega ADP-Glo™ Kinase Assay kit), and 1% DMSO (from compound).
(§3) Upon completion, 5 μL of the ADP Glo reagent was added to each well and the plate was further incubated at room temperature for 45 min. 10 μL of the Kinase Detection Reagent was subsequently added to each well. After 10 min of incubation, the plate was read and analyzed on the BioTek Synergy microplate reader using BioTek Gen5 software.
(In general: ADP-Glo first removes unused ATP, then detects ADP through luciferase.)

A further test addresses CDK9-CYCLIN T1 (Homo sapiens (Human), UniProt P50750). Kind of test: CDK protein kinase inhibition by the ADP-Glo Assay, CDK9-CYCLIN T1. To be noted: 1000 μM ATP. Type of test: biochemical. As for the experimental part: as §1, §2, §3
For a further test, the target named is CDK6-CYCLIN D3 (Homo sapiens (Human), UniProt Q00534). Kind of test: CDK protein kinase inhibition by the ADP-Glo Assay, CDK6-CYCLIN D3. In kind it is biochemical. The settings on record: 1000 μM ATP. As for the experimental part:
as §1, §2, §3

The target of a further test is CDK2-CYCLIN E1 (Homo sapiens (Human), UniProt P24941). Kind of test: CDK protein kinase inhibition by the ADP-Glo Assay, CDK2-CYCLIN E1. In kind it is biochemical. To be noted: 1000 μM ATP, read-out: CDK2-CYCLIN E, IC50. As to the method:
as §1, §2, §3

For another test, the target named is CDK4-CYCLIN D1 (Homo sapiens (Human), UniProt P11802). Kind of test: CDK protein kinase inhibition by the ADP-Glo Assay, CDK4-CYCLIN D1. In kind it is biochemical. To be noted: for IC50: ADP-Glo, 1000 μM ATP; for Selectivity CDK4 vs CDK1 / Selectivity CDK4 vs CDK2 / Selectivity CDK4 vs CDK6 / Selectivity CDK4 vs CDK9: ratio of recombinant kinase IC50s; for Selectivity CDK4 vs CDK1: CDK1 over CDK4; for Selectivity CDK4 vs CDK2: CDK2 over CDK4; for Selectivity CDK4 vs CDK6: CDK6 over CDK4; for Selectivity CDK4 vs CDK9: CDK9 over CDK4. As for the experimental part: as §1, §2, §3
Sequence of CDK4-CYCLIN D1 (P11802 whole entry): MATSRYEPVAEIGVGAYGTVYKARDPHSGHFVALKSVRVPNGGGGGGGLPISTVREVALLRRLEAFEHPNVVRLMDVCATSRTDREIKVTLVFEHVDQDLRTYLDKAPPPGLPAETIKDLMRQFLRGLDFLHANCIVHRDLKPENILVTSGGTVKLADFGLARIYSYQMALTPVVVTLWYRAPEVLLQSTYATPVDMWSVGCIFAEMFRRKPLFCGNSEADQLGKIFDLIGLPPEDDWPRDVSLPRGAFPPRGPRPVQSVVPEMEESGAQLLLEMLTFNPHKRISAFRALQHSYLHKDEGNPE
Sequence of CDK4-CYCLIN D1 (P24385 whole entry partner): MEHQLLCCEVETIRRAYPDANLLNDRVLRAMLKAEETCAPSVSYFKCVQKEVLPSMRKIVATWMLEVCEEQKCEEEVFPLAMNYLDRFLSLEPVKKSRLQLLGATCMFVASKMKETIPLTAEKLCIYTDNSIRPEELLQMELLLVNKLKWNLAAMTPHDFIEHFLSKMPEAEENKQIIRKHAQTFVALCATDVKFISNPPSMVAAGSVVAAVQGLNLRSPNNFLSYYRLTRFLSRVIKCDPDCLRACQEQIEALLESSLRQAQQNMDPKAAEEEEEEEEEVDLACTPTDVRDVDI

The test system of test [1] is Phospho-Rb (Ser807/811) in MCF7 cells. Briefly: Phospho-Rb expression inhibition in MCF7 cells quantified by in cell Western. The settings on record: for IC50: in cell Western. Type of test: cell-based, human. The procedure, abridged:
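MCF7 cells were seeded at 20,000/well, grown overnight, then treated 24 h at 37 °C with compound dilutions (0.1% DMSO from 1000× stocks). Fixed cells were co-stained for phospho-Rb Ser807/811 and total Rb. Near-infrared dual-channel in-cell Western imaging was the read-out.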

[2] abbreviates: Homo sapiens, MCF7, 24 h, 24 hours, read-out: MCF7 pRb IC50.

Sequence of CDK6-CYCLIN D3 (Q00534 whole entry): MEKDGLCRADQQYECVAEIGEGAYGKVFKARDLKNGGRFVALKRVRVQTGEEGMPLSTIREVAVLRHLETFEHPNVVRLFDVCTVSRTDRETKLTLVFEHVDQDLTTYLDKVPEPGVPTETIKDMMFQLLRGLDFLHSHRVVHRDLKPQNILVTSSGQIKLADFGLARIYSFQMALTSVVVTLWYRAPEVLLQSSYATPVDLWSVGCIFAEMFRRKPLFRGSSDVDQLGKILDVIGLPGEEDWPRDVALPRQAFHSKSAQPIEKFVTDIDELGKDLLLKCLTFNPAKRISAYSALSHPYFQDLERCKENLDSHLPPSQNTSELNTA
Sequence of CDK6-CYCLIN D3 (P30281 whole entry partner): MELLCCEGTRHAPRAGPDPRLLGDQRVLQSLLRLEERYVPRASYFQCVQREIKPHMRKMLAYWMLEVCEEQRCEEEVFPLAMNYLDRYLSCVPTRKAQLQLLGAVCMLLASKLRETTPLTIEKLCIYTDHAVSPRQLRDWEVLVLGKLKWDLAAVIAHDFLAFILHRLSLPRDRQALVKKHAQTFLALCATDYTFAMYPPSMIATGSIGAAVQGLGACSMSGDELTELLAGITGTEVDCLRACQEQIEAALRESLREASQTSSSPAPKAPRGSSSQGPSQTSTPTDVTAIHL
Sequence of CDK1-CYCLIN B (P06493 whole entry): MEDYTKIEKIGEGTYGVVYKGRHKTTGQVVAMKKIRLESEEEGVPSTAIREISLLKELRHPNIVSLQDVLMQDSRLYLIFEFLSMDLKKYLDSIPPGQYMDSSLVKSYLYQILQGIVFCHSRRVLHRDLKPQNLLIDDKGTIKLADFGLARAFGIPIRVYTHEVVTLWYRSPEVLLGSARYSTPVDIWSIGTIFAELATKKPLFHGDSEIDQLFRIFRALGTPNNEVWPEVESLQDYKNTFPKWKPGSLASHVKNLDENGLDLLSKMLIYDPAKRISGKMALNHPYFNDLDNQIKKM
Sequence of CDK1-CYCLIN B (P14635 whole entry partner): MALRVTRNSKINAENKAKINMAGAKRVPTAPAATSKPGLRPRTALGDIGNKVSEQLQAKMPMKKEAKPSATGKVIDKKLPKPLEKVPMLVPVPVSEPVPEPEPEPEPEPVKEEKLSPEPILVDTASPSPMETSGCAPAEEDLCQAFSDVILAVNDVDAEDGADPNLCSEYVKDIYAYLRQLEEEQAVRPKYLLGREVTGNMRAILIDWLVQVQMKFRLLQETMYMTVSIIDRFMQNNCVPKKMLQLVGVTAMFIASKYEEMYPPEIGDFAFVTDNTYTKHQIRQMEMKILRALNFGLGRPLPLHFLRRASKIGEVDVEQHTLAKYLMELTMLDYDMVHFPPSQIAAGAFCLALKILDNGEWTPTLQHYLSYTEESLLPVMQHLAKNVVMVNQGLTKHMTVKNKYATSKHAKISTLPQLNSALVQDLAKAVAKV
Sequence of CDK9-CYCLIN T1 (P50750 whole entry): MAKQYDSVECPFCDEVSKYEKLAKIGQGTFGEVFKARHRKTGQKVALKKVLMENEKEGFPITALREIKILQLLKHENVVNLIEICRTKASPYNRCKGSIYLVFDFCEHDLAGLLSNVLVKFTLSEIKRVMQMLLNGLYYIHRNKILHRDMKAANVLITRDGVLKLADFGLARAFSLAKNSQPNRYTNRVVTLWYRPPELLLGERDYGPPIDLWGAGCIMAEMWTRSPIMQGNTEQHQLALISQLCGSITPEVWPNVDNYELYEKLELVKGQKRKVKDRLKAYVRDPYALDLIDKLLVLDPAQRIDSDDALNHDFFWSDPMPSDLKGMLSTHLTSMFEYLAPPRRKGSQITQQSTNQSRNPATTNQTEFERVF
Sequence of CDK9-CYCLIN T1 (O60563 whole entry partner): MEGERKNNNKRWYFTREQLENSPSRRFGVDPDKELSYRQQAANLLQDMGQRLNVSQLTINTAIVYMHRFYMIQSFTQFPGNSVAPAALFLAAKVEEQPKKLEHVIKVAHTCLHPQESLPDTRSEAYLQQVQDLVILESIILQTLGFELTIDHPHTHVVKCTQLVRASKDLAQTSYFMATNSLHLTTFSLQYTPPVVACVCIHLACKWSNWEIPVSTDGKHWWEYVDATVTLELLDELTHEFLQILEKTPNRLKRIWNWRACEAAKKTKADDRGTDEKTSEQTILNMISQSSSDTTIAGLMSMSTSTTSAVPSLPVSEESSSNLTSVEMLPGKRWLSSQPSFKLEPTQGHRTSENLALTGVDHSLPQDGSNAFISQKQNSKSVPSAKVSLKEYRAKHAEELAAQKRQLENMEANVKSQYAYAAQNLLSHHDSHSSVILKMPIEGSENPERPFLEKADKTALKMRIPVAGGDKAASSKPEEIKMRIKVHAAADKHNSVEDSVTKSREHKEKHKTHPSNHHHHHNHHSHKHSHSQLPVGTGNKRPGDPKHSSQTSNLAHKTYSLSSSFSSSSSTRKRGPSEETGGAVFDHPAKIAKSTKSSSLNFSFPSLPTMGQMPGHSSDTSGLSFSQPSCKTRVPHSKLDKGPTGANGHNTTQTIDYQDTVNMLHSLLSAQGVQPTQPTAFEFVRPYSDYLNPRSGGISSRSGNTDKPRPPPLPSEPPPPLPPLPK

With `CC(C)n1c(C(C)(C)O)nc2c(F)cc(-c3nc(N[C@@H]4C[C@H]5CO[C@H](O5)[C@H]4O)ncc3Cl)cc21` [Compound 1, (1S,3R,4S,5R)-3-((5-chloro-4-(4-fluoro-2-(2-hydroxypropan-2-yl)-1-isopropyl-1H-benzo[d]imidazol-6-yl)pyrimidin-2-yl)amino)-6,8-dioxabicyclo[3.2.1]octan-4-ol], the IC50 on CDK1-CYCLIN B was 26200 nM; at CDK9-CYCLIN T1, 4880 nM; at CDK6-CYCLIN D3, 63.8 nM; on CDK2-CYCLIN E1 it was above 30000 nM; on CDK4-CYCLIN D1, 3.15 nM; in test [1] (Homo sapiens, MCF7, 24 h, 24 h incubation, read-out: MCF7, pRb (Ser807/811), IC50) it was 40.4 nM. Also, the IC50 in test [1] (setting [2]) fell in the range of 40 to 150 nM. Besides, at CDK4-CYCLIN D1, the “Selectivity CDK4 vs CDK1” value is reported as 8,317. At CDK4-CYCLIN D1, the “Selectivity CDK4 vs CDK2” value was >9,524. At CDK4-CYCLIN D1, the “Selectivity CDK4 vs CDK6” value came out at 20. Also, on CDK4-CYCLIN D1, the “Selectivity CDK4 vs CDK9” value is recorded as 1,549. Besides, the “Selectivity for CDK4 over CDK1, CDK2, CDK6 and CDK9 compared with the reference compound” value at CDK4-CYCLIN D1 (versus PF-07220060) is “much better selectivity”. For the same compound, the “Potency in p-Rb inhibition compared with the reference compound” value in test [1] (versus PF-07220060) is recorded as “higher potency”.
With `CC(C)n1c([C@H]2CCOC2)nc2c(F)cc(-c3nc(N[C@@H]4C[C@H]5CO[C@H](O5)[C@H]4O)ncc3F)cc21` [Compound 269, (1S,3R,4S,5R)-3-((5-fluoro-4-(4-fluoro-1-isopropyl-2-((R)-tetrahydrofuran-3-yl)-1H-benzo[d]imidazol-6-yl)pyrimidin-2-yl)amino)-6,8-dioxabicyclo[3.2.1]octan-4-ol], in test [1] (setting [2]), the IC50 is 40 to 150 nM.
Consider `CC(C)n1c([C@@H]2CCOC2)nc2c(F)cc(-c3nc(N[C@@H]4C[C@H]5CO[C@H](O5)[C@H]4O)ncc3F)cc21` [Compound 270, (1S,3R,4S,5R)-3-((5-fluoro-4-(4-fluoro-1-isopropyl-2-((S)-tetrahydrofuran-3-yl)-1H-benzo[d]imidazol-6-yl)pyrimidin-2-yl)amino)-6,8-dioxabicyclo[3.2.1]octan-4-ol], for which, in test [1] (setting [2]), the IC50 fell in the range of 40 to 150 nM.
Take `Cc1c(-c2nc(N[C@@H]3C[C@H]4CO[C@H](O4)[C@H]3O)ncc2Cl)sc2c(Cl)c(C(C)(C)O)cnc12` [Compound 275, (1S,3R,4S,5R)-3-((5-chloro-4-(7-chloro-6-(2-hydroxypropan-2-yl)-3-methylthieno[3,2-b]pyridin-2-yl)pyrimidin-2-yl)amino)-6,8-dioxabicyclo[3.2.1]octan-4-ol]: the IC50 in test [1] (setting [2]) lay within 40 to 150 nM.
Consider `Cc1c(-c2nc(N[C@@H]3C[C@H]4CO[C@H](O4)[C@H]3O)ncc2F)sc2c(Cl)c(C(C)(C)O)cnc12` [Compound 276, (1S,3R,4S,5R)-3-((4-(7-chloro-6-(2-hydroxypropan-2-yl)-3-methylthieno[3,2-b]pyridin-2-yl)-5-fluoropyrimidin-2-yl)amino)-6,8-dioxabicyclo[3.2.1]octan-4-ol], for which the IC50 in test [1] (setting [2]) was at most 40 nM.
The same measure, in the same setting: the result for `Cc1c(-c2nc(N[C@@H]3C[C@H]4CO[C@H](O4)[C@H]3O)ncc2Cl)sc2c(C)c(C(C)(C)O)cnc12` [Compound 277, (1S,3R,4S,5R)-3-((5-chloro-4-(6-(2-hydroxypropan-2-yl)-3,7-dimethylthieno[3,2-b]pyridin-2-yl)pyrimidin-2-yl)amino)-6,8-dioxabicyclo[3.2.1]octan-4-ol] reads at most 40 nM; that for `Cc1c(CN2CC[C@H](F)C2)n(C(C)C)c2cc(-c3nc(N[C@@H]4C[C@H]5CO[C@H](O5)[C@H]4O)ncc3F)ccc2c1=O` [Compound 293, 7-(5-fluoro-2-(((1S,3R,4S,5R)-4-hydroxy-6,8-dioxabicyclo[3.2.1]octan-3-yl)amino)pyrimidin-4-yl)-2-(((S)-3-fluoropyrrolidin-1-yl)methyl)-1-isopropyl-3-methylquinolin-4(1H)-one], at most 40 nM; that for `CC(C)n1c(N2C(=O)OC[C@@H]2C)nc2c(F)cc(-c3nc(N[C@@H]4C[C@H]5CO[C@H](O5)[C@H]4O)ncc3Cl)cc21` [Compound 298, (S)-3-(6-(5-chloro-2-(((1S,3R,4S,5R)-4-hydroxy-6,8-dioxabicyclo[3.2.1]octan-3-yl)amino)pyrimidin-4-yl)-4-fluoro-1-isopropyl-1H-benzo[d]imidazol-2-yl)-4-methyloxazolidin-2-one], 150 to 1000 nM.
For `CC(C)n1c(C(C)(C)O)nc2c(F)cc(-c3nc(N[C@@H]4CCOC[C@H]4O)ncc3Cl)cc21` [Reference Compound, PF-07220060, reference compound], the IC50 was 8590 nM at CDK1-CYCLIN B; 1880 nM on CDK9-CYCLIN T1; 76.5 nM at CDK6-CYCLIN D3; above 30000 nM on CDK2-CYCLIN E1; 4.37 nM on CDK4-CYCLIN D1; 65.2 nM in test [1] (24 h incubation, read-out: MCF7, pRb (Ser807/811), IC50). Besides, at CDK4-CYCLIN D1, the “Selectivity CDK4 vs CDK1” value is 1,966. Further, at CDK4-CYCLIN D1, the “Selectivity CDK4 vs CDK2” value is on record as >6,865. Further, on CDK4-CYCLIN D1, the “Selectivity CDK4 vs CDK6” value is reported as 18. Besides, the “Selectivity CDK4 vs CDK9” value on CDK4-CYCLIN D1 was found to be 430.
